In patent US9610294B2, “Methods and compositions for the treatment of fluid accumulation in and/or under the retina” (UNIVERSITE PARIS DESCARTES, priority 2010, dated 2017):
“Also recorded” adds a separate entry of the source.

Key:
[1] = test system: retina; test: Intravitreous aldosterone injection in rat eyes: retinal morphology and thickness; type: in vivo, Lewis rats
Method: All experiments were performed in accordance with the European Communities Council Directive 86/609/EEC and approved by local ethical committees. Adult female Lewis rats (8-12 weeks old, Janvier, Le Genest-Saint-Isle, France) were used for preparation of RMG primary cultures, for retinal organotypic cultures and for in vivo experiments. Rats were sacrificed by carbon dioxide inhalation.
(§1) Anesthesia of rats was induced by intramuscular injection of ketamine (100 mg/kg, Virbac, Carros, France) and chlorpromazine (0.65 mg/kg, LARGACTIL®, Sanofi Aventis, Livron sur Drome, France). Intravitreous injections were performed using microfine (300 μl) syringes with 30 G needles under topical anesthesia (tetracaine 1%, Aldrich, Lyon, France). Rat eyes were injected with 5 μl aldosterone diluted in 0.9% saline to obtain a concentration of 200 nM for injection, corresponding to a final concentration of 20 nM in the vitreous. Control rat eyes were injected with 5 μl saline. Twenty-four hrs after injection, rats were sacrificed. Eyes were then removed for retinal flat mounting, immunohistochemistry and morphological analysis respectively.
Enucleated eyes were fixed in 2.5% glutaraldehyde in cacodylate buffer (0.1 M, pH 7.4). After 30 min, eyes were dissected at the level of the limbus and lens removed. The posterior part was fixed for a further 5 hrs, dehydrated in a graded alcohol series (50%, 70%, 95% and 100%) and embedded in epoxy resin. Semi-thin sections (1 J.Im) were cut using an ultramicrotome (Reichert Ultracut E, Leica, Wetzlar, Germany), and stained with toluidine blue. The morphology was examined under a light microscope (DMRB, Leica). Retinal thickness was measured manually every 100 μm from the peripheral to the posterior pole. For analysis, the retina was divided into 3 zones: periphery, middle and posterior pole. In each zone, 3-4 individual measurements were performed in each section. Two to 6 sections were analyzed per rat (3 rats with aldosterone intravitreous injection and 3 with sham injection)

[2] = test system: ENaC-α; test: ENaC-α expression (real-time PCR, western blot) in rat RMG primary cultures and retinal explants; type: cell-based
Method: Rat RMG cells were obtained as described (deKozak, Y., Naud, M. C., Bellot, J., Faure, J. P., and Hicks, D. (1994) Differential tumor necrosis factor expression by resident retinal cells from experimental uveitis-susceptible and -resistant rat strains. J Neuroimmunol 55, 1-9). Briefly, rats at postnatal (PN) day 17 (when RMG cells are mature) were sacrificed and eyes enucleated. Intact eyeballs were maintained in DMEM overnight at room temperature in the dark, and then incubated 45 min with 2 mg/ml trypsin/collagenase I at 37° C. The neural retinas were separated from the lens and vitreous, cut into small fragments and plated in Petri dishes containing DMEM supplemented with 10% FCS, 100 units/ml penicillin, 100 µg/ml streptomycin, and 0.2% amphotericin B. Cultures were maintained at 37° C. in a humidified atmosphere containing 5% CO2. After 5 to 6 days, the cultures were washed extensively with medium so that only a strongly adherent flat cell population remained.
Müller cells were seeded in 6-well tissue culture plates (Becton Dickinson, Le Pont de Claix, France). Rat PN17 RMG cells were maintained in their initial Petri dishes. Sub confluent (80%) cells were incubated in media supplemented with 10% steroid-free (charcoal treated) FCS for 24 hrs. Corticosteroid (Sigma-Aldrich, Saint Quentin Fallavier, France) treatments were then applied respectively for a further 24 hrs: 10 nM aldosterone, 10 nM aldosterone plus 1).IM RU38486 (GR-specific antagonist), 10 nM aldosterone plus 1 µM RU26752 (MR-specific antagonist) or 1 µM dexamethasone. The steroids were previously dissolved in 2% steroid-free FCS media containing 0.1% ethanol. Control cells were treated with 0.1% ethanol in media.
After enucleation, rat retinas were isolated immediately under aseptic conditions and cut into 4 pieces. They were then transferred onto a Cyclopore 0.2).Im polycarbonate membrane (Whatman, Maidstone, England), and flatmounted with the vitreal side up. The support membranes were placed in 6-well tissue culture plates containing 2 ml DMEM supplemented with 10% steroid-free FCS, 1% penicillin-streptomycin and 0.1% amphotericin B. Explants were treated with corticosteroids as described for cultured cells. Similarly, the dose-dependent effect of aldosterone (0.1-100 nM) was analyzed on retinal explants in separate experiments.
Total RNA was isolated from the treated RMG cells and retinal explants using RNeasy Mini Kit (Qiagen, Courtaboeuf, France). First-strand cDNA was synthesized after DNase I (Qiagen) treatment using random primers (Invitrogen) and superscript II reverse transcriptase (Invitrogen). Transcript levels of ENaC-a, Kir4.1 and AQP4 were analyzed by real-time PCR performed in 7500 Real-Time PCR System (Applied Biosystems, Foster City, Calif., USA) with either TaqMan® (Applied Biosystems) or SYBR® Green (Invitrogen, Cergy Pontoise, France) detection. The 18S was used as internal control.
Retinal explants were homogenized in Np40 buffer in the presence of protease inhibitors. The protein concentration was determined by the Bradford method. Equal amounts of protein (12 .ug) were separated on Novex® 4%-12% Tris-Glycine gel (Invitrogen), transferred to nitrocellulose, and the blots were incubated with primary antibodies at 4° C. overnight. The membranes were washed, incubated with horse radish peroxidase conjugated goat anti-rabbit IgG (1:3000, Vector, AbCys, Paris, France) for 1 hr at room temperature, and developed using ECL Plus western blotting detection reagents (GE healthcare, Orsay, France). The j3-actin was used as internal control. The following primary antibodies were used: rabbit anti-alpha ENaC (1:500, Abcam, Cambridge, Mass., USA), rabbit anti-Kir4.1 (1:400, Alomone Labs, Jerusalem, Israel), rabbit anti-AQP4 (1:750, Millipore, St Quentin en Yvelines, France) and rabbit anti-j3-actin (1:1000, Abcam)

[3] = test system: Kir4.1; test: Kir4.1 immunofluorescence in retina of aldosterone-injected eyes; type: in vivo, Lewis rats; conditions: intravitreous aldosterone vs sham-injected
Method: as §1
Eyes were snap frozen in Tissue-Tek OCT-compound (Bayer Diagnostics, Puteaux, France). Ten μm cryostat sections of rat eyes were fixed in 4% PFA for 15 min and permeabilized with 0.1% Triton X-I00 for 30 min. Unspecific binding sites were blocked with 5% normal goat serum for 1 hr. The sections were then incubated with primary antibodies for 1 hr at room temperature, washed in PBS, and further incubated with secondary antibodies for 1 hr. […] Images were taken using a fluorescence microscope (Olympus BX51, Rungis, France) equipped with a CCD camera (Olympus DP70). […]

[4] = test system: retina; test: Intraocular injection in Brown Norway rats (gain of function mutation in the MR gene): CSCR-like retinal pathology; type: in vivo; conditions: FIGS. 1 and 2
[5] = single intravitreous injection, 20 nM, 24 hrs later

For `C[C@]12CCC(=O)C=C1CC[C@@H]1[C@@H]2[C@@H](O)C[C@]2(C=O)[C@@H](C(=O)CO)CC[C@@H]12` [aldosterone], which “retinal swelling (increase compared to sham-injected eyes)” value ([1]; intravitreous injection, 20 nM final in the vitreous, 24 hrs) is on record?
Its value is 24%.

What about the “Retinal thickness compared to sham-injected eyes” value [1, 5] of the same molecule?
Its value is “significantly increased”.

What about the “retinal morphological changes on semi-thin sections” value [1, 5] of the same molecule?
Its value is “fluid accumulation in the entire retina”.

What about the “ENaC-α subunit mRNA expression” value ([2]; 24 hrs treatment, rat RMG primary cultures and retinal explants) of the same molecule?
The value was “significant up-regulation”.

What about the “dose dependence of ENaC-α transcripts” value ([2]; aldosterone 0.1-100 nM, retinal explants) of the same molecule?
The value was “dose dependent manner”.

What about the “expression of sodium channel ENaC-a” value ([2]; aldosterone 24 hrs) of the same molecule?
Its value is 6.5 fold.

And the “ENaC-α expression at the protein level” value ([2]; western blot, retinal explants)?
The value was “up-regulated”.

And the “Kir4.1 localization in retina” value [3]?
The value was “additional localization; also recorded: enhanced Kir4.1 immunofluorescence in the RMG apical microvilli in the OLM; also recorded: additional mislocalization”.

What about the “retinal pathology after intraocular injection” value [4] of the same molecule?
The value was “develop a retinal pathology similar to CSCR; also recorded: vasodilation of choroid vessels, rupture of the junction between RPE cells, swallowing of the photoreceptor segments and sub retinal fluid accumulation; also recorded: develop a retinal pathology very close to CSCR”.
